Test results taken from ChEMBL document CHEMBL2406981, “Novel pyrazoline amidoxime and their 1,2,4-oxadiazole analogues: synthesis and pharmacological screening” (Bioorg Med Chem Lett, 2013).
≈ marks a conversion by molar mass, not a printed value.

Legend:
Type in all cases: functional
Klebsiella pneumoniae [1] = assay: Antimicrobial activity against Klebsiella pneumoniae MTCC 3384 at 50 ug/ml after 24 hrs by agar disc diffusion method; conditions: MTCC 3384, 24 h, read-out: DIZ
Aspergillus niger [2] = assay: Antimicrobial activity against Aspergillus niger MTCC 281 at 100 ug/ml after 24 hrs by agar disc diffusion method; conditions: MTCC 281, 24 h, read-out: DIZ
Aspergillus niger [3] = assay: Antimicrobial activity against Aspergillus niger MTCC 281 at 50 ug/ml after 24 hrs by agar disc diffusion method; conditions: MTCC 281, 24 h, read-out: DIZ
Klebsiella pneumoniae [4] = assay: Antimicrobial activity against Klebsiella pneumoniae MTCC 3384
Escherichia coli [5] = assay: Antimicrobial activity against Escherichia coli MTCC 724 at 50 ug/ml after 24 hrs by agar disc diffusion method; conditions: MTCC 724, 24 h, read-out: DIZ
Shigella flexneri [6] = assay: Antimicrobial activity against Shigella flexneri MTCC 1457 at 50 ug/ml after 24 hrs by agar disc diffusion method; conditions: MTCC 1457, 24 h, read-out: DIZ
Bacillus cereus [7] = assay: Antimicrobial activity against Bacillus cereus MTCC 8372
Aspergillus niger [8] = assay: Antimicrobial activity against Aspergillus niger MTCC 281
Aspergillus flavus [9] = assay: Antimicrobial activity against Aspergillus flavus MTCC 873 at 50 ug/ml after 24 hrs by agar disc diffusion method; conditions: MTCC 873, 24 h, read-out: DIZ
Escherichia coli [10] = assay: Antimicrobial activity against Escherichia coli MTCC 724
Shigella flexneri [11] = assay: Antimicrobial activity against Shigella flexneri MTCC 1457 at 100 ug/ml after 24 hrs by agar disc diffusion method; conditions: MTCC 1457, 24 h, read-out: DIZ
Shigella flexneri [12] = assay: Antimicrobial activity against Shigella flexneri MTCC 1457
Escherichia coli [13] = assay: Antimicrobial activity against Escherichia coli MTCC 724 at 100 ug/ml after 24 hrs by agar disc diffusion method; conditions: MTCC 724, 24 h, read-out: DIZ
Klebsiella pneumoniae [14] = assay: Antimicrobial activity against Klebsiella pneumoniae MTCC 3384 at 100 ug/ml after 24 hrs by agar disc diffusion method; conditions: MTCC 3384, 24 h, read-out: DIZ
Bacillus cereus [15] = assay: Antimicrobial activity against Bacillus cereus MTCC 8372 at 100 ug/ml after 24 hrs by agar disc diffusion method; conditions: MTCC 8372, 24 h, read-out: DIZ
[16] = Antioxidant activity assessed as reducing power of ferric ion at 10 ug/ml after 20 mins; set-up: scale not given: the % may be the effect or the level left
Staphylococcus aureus [17] = assay: Antimicrobial activity against Staphylococcus aureus MTCC 96 at 50 ug/ml after 24 hrs by agar disc diffusion method; conditions: MTCC 96, 24 h, read-out: DIZ
Bacillus cereus [18] = assay: Antimicrobial activity against Bacillus cereus MTCC 8372 at 50 ug/ml after 24 hrs by agar disc diffusion method; conditions: MTCC 8372, 24 h, read-out: DIZ
Staphylococcus aureus [19] = assay: Antimicrobial activity against Staphylococcus aureus MTCC 96
[20] = Antioxidant activity against ferric chloride-induced lipid peroxidation using egg lecithin at 100 ug/ml after 1 hr
Aspergillus flavus [21] = assay: Antimicrobial activity against Aspergillus flavus MTCC 873 at 100 ug/ml after 24 hrs by agar disc diffusion method; conditions: MTCC 873, 24 h, read-out: DIZ
[22] = Antiinflammatory activity against heat-induced albumin denaturation at […] preincubated for 15 mins before heat induction by UV-vis spectrophotometer analysis
[23] = Antioxidant activity assessed as reducing power of ferric ion at 50 ug/ml after 20 mins; set-up: scale not given: the % may be the effect or the level left
Aspergillus flavus [24] = assay: Antimicrobial activity against Aspergillus flavus MTCC 873
[25] = Antioxidant activity assessed as reducing power of ferric ion at 100 ug/ml after 20 mins; set-up: scale not given: the % may be the effect or the level left
[26] = Antioxidant activity against ferric chloride-induced lipid peroxidation using egg lecithin at 50 ug/ml after 1 hr
[27] = test system: Radical scavenging activity; assay: Antioxidant activity assessed as DPPH free radical scavenging activity at 100 ug/ml after 20 mins
[28] = test system: Radical scavenging activity; assay: Antioxidant activity assessed as DPPH free radical scavenging activity at 50 ug/ml after 20 mins
[29] = Antioxidant activity against ferric chloride-induced lipid peroxidation using egg lecithin at 10 ug/ml after 1 hr
Staphylococcus aureus [30] = assay: Antimicrobial activity against Staphylococcus aureus MTCC 96 at 100 ug/ml after 24 hrs by agar disc diffusion method; conditions: MTCC 96, 24 h, read-out: DIZ
[31] = test system: Radical scavenging activity; assay: Antioxidant activity assessed as DPPH free radical scavenging activity at 10 ug/ml after 20 mins

Structure (SMILES) | zone of inhibition at 50 µg/mL (Klebsiella pneumoniae [1]) [mm] | zone of inhibition at 100 µg/mL (Aspergillus niger [2]) [mm] | zone of inhibition at 50 µg/mL (Aspergillus niger [3]) [mm] | MIC (Klebsiella pneumoniae [4]) [mg/L] | zone of inhibition at 50 µg/mL (Escherichia coli [5]) [mm] | zone of inhibition at 50 µg/mL (Shigella flexneri [6]) [mm] | MIC (Bacillus cereus [7]) [mg/L] | MIC (Aspergillus niger [8]) [mg/L] | zone of inhibition at 50 µg/mL (Aspergillus flavus [9]) [mm] | MIC (Escherichia coli [10]) [mg/L] | zone of inhibition at 100 µg/mL (Shigella flexneri [11]) [mm] | MIC (Shigella flexneri [12]) [mg/L] | zone of inhibition at 100 µg/mL (Escherichia coli [13]) [mm] | zone of inhibition at 100 µg/mL (Klebsiella pneumoniae [14]) [mm] | zone of inhibition at 100 µg/mL (Bacillus cereus [15]) [mm] | Activity [16] [%] | zone of inhibition at 50 µg/mL (Staphylococcus aureus [17]) [mm] | zone of inhibition at 50 µg/mL (Bacillus cereus [18]) [mm] | MIC (Staphylococcus aureus [19]) [mg/L] | zone of inhibition at 100 µg/mL (Aspergillus flavus [21]) [mm] | further results
COc1ccc(-c2nc(C3CC(c4ccccc4)=NN3c3ccccc3)no2)cc1OC (centres undefined) | 8 | 18 | 12 | 20 (≈ 46.9 µM) | 8 | 7 | 20 (≈ 46.9 µM) | 10 (≈ 23.4 µM) | 10 | 20 (≈ 46.9 µM) | 10 | 25 (≈ 58.6 µM) | 12 | 14 | 14 | 12 | 8 | 8 | 20 (≈ 46.9 µM) | 14 | inhibition [20]: 71%; inhibition [22]: 27.1%; Activity [23]: 29%; MIC (Aspergillus flavus [24]): 10 mg/L (≈ 23.4 µM); Activity [25]: 68%; inhibition [26]: 52%; Activity [27]: 66%; Activity [28]: 56%; inhibition [29]: 14%; zone of inhibition at 100 µg/mL (Staphylococcus aureus [30]): 12 mm; Activity [31]: 26%
c1ccc(-c2cc(-c3noc(-c4ccccc4)n3)n(-c3ccccc3)n2)cc1 | 3 | 18 | 9 | 50 (≈ 137 µM) | 4 | 3 | 35 (≈ 96 µM) | 20 (≈ 54.9 µM) | 10 | 40 (≈ 110 µM) | 9 | 55 (≈ 151 µM) | 6 | 6 | 8 | 10 | 3 | 5 | 55 (≈ 151 µM) | 10 | inhibition [20]: 67%; inhibition [22]: 37%; Activity [23]: 14%; MIC (Aspergillus flavus [24]): 15 mg/L (≈ 41.2 µM); Activity [25]: 65%; inhibition [26]: 40%; Activity [27]: 39%; Activity [28]: 28%; inhibition [29]: 26%; zone of inhibition at 100 µg/mL (Staphylococcus aureus [30]): 6 mm; Activity [31]: 18%
COc1ccc(C2=NN(c3ccccc3)C(/C(N)=N/O)C2)cc1 (centres undefined) | 6 | 12 | 10 | 25 (≈ 80.6 µM) | 3 | 6 | 35 (≈ 113 µM) | 15 (≈ 48.3 µM) | 5 | 55 (≈ 177 µM) | 10 | 25 (≈ 80.6 µM) | 8 | 9 | 16 | 10 | 2 | 4 | 50 (≈ 161 µM) | 10 | inhibition [20]: 14%; inhibition [22]: 23.8%; Activity [23]: 22%; MIC (Aspergillus flavus [24]): 30 mg/L (≈ 96.7 µM); Activity [25]: 62%; inhibition [26]: 16%; Activity [27]: 55%; Activity [28]: 33%; inhibition [29]: 10%; zone of inhibition at 100 µg/mL (Staphylococcus aureus [30]): 12 mm; Activity [31]: 18%
COc1ccc(C2=NN(c3ccccc3)C(c3noc(-c4ccc(Cl)cc4)n3)C2)cc1 (centres undefined) | 7 | 20 | 12 | 25 (≈ 58 µM) | 8 | 8 | 40 (≈ 92.8 µM) | 10 (≈ 23.2 µM) | 12 | 25 (≈ 58 µM) | 8 | 25 (≈ 58 µM) | 10 | 10 | 13 | 12 | 5 | 4 | 30 (≈ 69.6 µM) | 18 | inhibition [20]: 70%; inhibition [22]: 57.5%; Activity [23]: 23%; MIC (Aspergillus flavus [24]): 10 mg/L (≈ 23.2 µM); Activity [25]: 58%; inhibition [26]: 48%; Activity [27]: 72%; Activity [28]: 52%; inhibition [29]: 34%; zone of inhibition at 100 µg/mL (Staphylococcus aureus [30]): 12 mm; Activity [31]: 22%
Oc1ccc(C2=NN(c3ccccc3)C(c3noc(-c4ccc(O)cc4)n3)C2)cc1 (centres undefined) | 10 | 22 | 14 | 15 (≈ 37.6 µM) | 12 | 14 | 25 (≈ 62.7 µM) | 10 (≈ 25.1 µM) | 12 | 10 (≈ 25.1 µM) | 22 | 10 (≈ 25.1 µM) | 20 | 16 | 10 | 12 | 8 | 6 | 20 (≈ 50.2 µM) | 20 | inhibition [20]: 78%; inhibition [22]: 69.7%; Activity [23]: 30%; MIC (Aspergillus flavus [24]): 10 mg/L (≈ 25.1 µM); Activity [25]: 76%; inhibition [26]: 58%; Activity [27]: 86%; Activity [28]: 47%; inhibition [29]: 34%; zone of inhibition at 100 µg/mL (Staphylococcus aureus [30]): 12 mm; Activity [31]: 31%
O=C1O[C@H]([C@@H](O)CO)C(O)=C1O |  |  |  |  |  |  |  |  |  |  |  |  |  |  |  | 14 |  |  |  |  | Activity [23]: 32%; Activity [25]: 82%; Activity [27]: 94%; Activity [28]: 57%; Activity [31]: 32%
COc1ccc(C2=NN(c3ccccc3)C(c3noc(-c4ccc(OC)c(OC)c4)n3)C2)cc1 (centres undefined) | 8 | 30 | 16 | 20 (≈ 43.8 µM) | 8 | 10 | 10 (≈ 21.9 µM) | 10 (≈ 21.9 µM) | 16 | 20 (≈ 43.8 µM) | 24 | 15 (≈ 32.9 µM) | 16 | 18 | 16 | 13 | 10 | 12 | 15 (≈ 32.9 µM) | 20 | inhibition [20]: 76%; inhibition [22]: 29.9%; Activity [23]: 23%; MIC (Aspergillus flavus [24]): 10 mg/L (≈ 21.9 µM); Activity [25]: 74%; inhibition [26]: 49%; Activity [27]: 67%; Activity [28]: 48%; inhibition [29]: 34%; zone of inhibition at 100 µg/mL (Staphylococcus aureus [30]): 18 mm; Activity [31]: 29%
OC(Cn1cncn1)(Cn1cncn1)c1ccc(F)cc1F [FLUCONAZOLE] |  | 30 | 20 |  |  |  |  | 5 (≈ 16.3 µM) | 16 |  |  |  |  |  |  |  |  |  |  | 28 | MIC (Aspergillus flavus [24]): 5 mg/L (≈ 16.3 µM)
O=C(N[C@H](CO)[C@H](O)c1ccc([N+](=O)[O-])cc1)C(Cl)Cl [CHLORAMPHENICOL] | 12 |  |  | 10 (≈ 30.9 µM) | 10 | 10 | 10 (≈ 30.9 µM) |  |  | 10 (≈ 30.9 µM) | 24 | 10 (≈ 30.9 µM) | 18 | 20 | 18 |  | 9 | 10 | 10 (≈ 30.9 µM) |  | zone of inhibition at 100 µg/mL (Staphylococcus aureus [30]): 16 mm
O=C(O)Cc1ccccc1Nc1c(Cl)cccc1Cl |  |  |  |  |  |  |  |  |  |  |  |  |  |  |  |  |  |  |  |  | inhibition [22]: 84.4%
